Measured values reported in US10709769B2, “Use of endostatin peptides for the treatment of fibrosis” (University of Pittsburgh—Of the Commonwealth System of …, priority 2009, dated 2020).

What was measured:
normal lung fibroblasts = test: α-SMA levels in TGF-β-stimulated normal lung fibroblasts; format: cell-based, human; details: peptide following TGF-β stimulation
Excerpt: FIGS. 1A-1F. ECM production in recombinant endostatin- and endostatin-derived peptide-treated fibroblasts in combination with TGF-β stimulation. A: FN and Col1α1 expression in human normal lung fibroblasts (NL) treated with vehicle (V), rE alone, or both with prior TGF-β stimulation. Proteins were detected western blot. GAPDH was used as a loading control for lysates. B: FN and Col1α1 expression of endostatin polypeptide-treated lung fibroblasts following TGF-β stimulation in primary pulmonary fibroblasts from a healthy control, a patient with SSc, and a patient with IPF. […] Intensity of bands was normalized to that of GAPDH and expressed as a ratio to Vehicle (V). […]
Cellular lysates were obtained from cultured fibroblasts as previously described (Pilewski et al., Am J Pathol 2005; 166:399-407). […] Cellular lysates were analyzed by western blot. Signals were detected following incubation with horseradish peroxidase-conjugated secondary antibody and chemiluminescence (Perkin Elmer Life Sciences, Inc., Boston, Mass.). The intensity of individual bands with expected molecular sizes was semi-quantitatively analyzed using the image/J® software available at on the internet (/rsb.info.nih.gov/ij/index.html), and normalized to individual GAPDH intensity. […]

mouse skin = test: TGF-β-induced dermal fibrosis in vivo in mouse skin
Method: FIG. 9. E4 reverses TGF β-induced dermal fibrosis even if administered 3 days following TGF-β.
CB57BL6/J male mice were purchased from The Jackson Laboratory (Bar Harbor, Me.). Human rE (10 μg/ml) or Endostatin peptides (10 μg/ml) in combination with TGF-β (10 ng/ml), or TGF-β alone were injected intradermally on the back of mice in a total volume of 100 μl 1×PBS. Mice were injected in two different skin sites and sacrificed one week post-injection. Skin surrounding the injection site was harvested and fixed in 10% formalin prior to embedding in paraffin.
Six μm sections of paraffin-embedded human and mouse skin tissues were stained with hematoxylin and eosin (H&E). In some experiments, sections were stained with Masson trichrome which identifies collagens. Images were taken on a Nikon Eclipse 800 microscope. The thickness of the dermis was measured in 6 random fields of each section using the image/J® software. Data are shown in arbitrary units.
E4, a peptide representing the carboxy terminus of human endostatin, can attenuate fibrosis triggered by multiple fibrogenic factors. The anti-fibrotic effects of E4 can be detected whether administered concomitantly with or following the fibrogenic trigger. The efficacy of E4 was confirmed in […] pre-clinical models of fibrosis: a) bleomycin-induced dermal fibrosis in vivo in mouse skin, b) TGF-β induced dermal fibrosis in mouse skin, and c) bleomycin-induced pulmonary fibrosis. E4 peptide or a control peptide (E1; representing the amino terminal region of endostatin) were administered at the same time as TGF-β or bleomycin or 3-4 days following TGF-β or bleomycin. Mice were sacrificed one and two weeks after TGF-β-initiation of dermal fibrosis, and two and three weeks after bleomycin-induced pulmonary fibrosis. Two different modes of administration of the E4 peptide were also tested. It was confirmed that intraperitoneal and intratracheal administration was effective. The amount of E4 that was administered ws 10 μg/ml in a total volume of 100 μl for skin and IP injections and 50 μl for IT administration.

[1] = tested on: Human umbilical vein endothelial cells (HUVECs); test: Tubular formation assay in Matrigel; format: cell-based; details: 50 nM, 24 hours
Method: The ability of endostatin peptide to inhibit angiogenesis was examined in tubular formation assay using Matrigel® culture. Human umbilical vein endothelial cells (HUVECs) were maintained in endothelial cell basal medium-2 (EBM-2; Clonetics, San Diego, Calif.) supplemented with EBM-2 MV SingleQuots®. HUVECs (5×10^4) were cultured in duplicate on 24-well Matrigel® plates (BD Biosciences, San Diego, Calif.) alone, or in the presence of rE or E4 peptide (50 nM) in EBM-2 at 37° C. DMSO was used as vehicle control. After 24 hours, images were captured using a […] microscope. The degree of cord formation was quantified by measuring the area occupied by tubes in 6 random fields per well. Three independent experiments were performed.

Egr-1 = Egr-1 western blot in primary human lung fibroblasts; format: cell-based; details: TGFβ followed by E4 after 60 minutes, harvested after 24 hours
Method: FIG. 16. E-4 reduces fibrosis in vitro by reducing levels of the master transcription factor Egr-1 in primary human lung fibroblasts. Reduction of Egr-1 levels parallels that of collagen, SMA, and fibronectin. Lane 1: vehicle (DMSO); Lane 2: E4; Lane 3: TGFβ, Lane 4 TGFβ followed by E4 after 60 minutes. The samples were harvested after 24 hours.
E4 also promotes the degradation of ECM components via induction and activation of matrix metalloprotease (MMP-2), an enzyme that degrades several ECM molecules including fibronectin and native and denatured collagens (FIG. 14). In addition, E4 increases levels of inhibitor of differentiation (ID)-1, a transcription factor that inhibits TGF-β effects (see FIG. 15). It was determined in a Western bloat analysis that E4 reduces the levels of the master switch transcription factor, Egr-1 (see FIG. 16) in primary human lung fibroblasts, treated and harvested after 24 hours. The reduction of Egr-1 levels parallels a reduction in collagen, SMA and fibronectin. Egr-1 is known to mediate the effects of several fibrotic agents (including TGF-β and bleomycin).

## H-^133SYCETWRTEAPSATGQASSLLGGRLLGQSAASCHHAYIVLCIENSFMT^180-CONH2 (H-SYCETWRTEAPSATGQASSLLGGRLLGQSAASCHHAYIVLCIENSFMT-NH2; cysteine pairing not given here; UniProt P39060 1704-1751, looked up, fragment) [E4, amino acids 133-180 of human endostatin; differs from E3 by the presence of a carboxy-terminal amide]
Normal lung fibroblasts
  TGF-β-induced α-SMA levels: decreased
Mouse skin; TGFβ day 1, peptide IP at day 3, harvested day 7
  TGFbeta induced dermal fibrosis, delayed treatment: significant decrease
Mouse skin; mice, intradermal, 10 μg/ml with TGF-β 10 ng/ml, one week post-injection
  TGF-β-induced dermal fibrosis (dermal thickness): prevented
[1]
  inhibition of tubular structure formation: modest
Egr-1
  levels of Egr-1: reduces
